The values that follow come from patent US11439607B2 (Paracelsus Neuroscience I, LLC, priority 2016, dated 2022).

“Also recorded” adds a separate entry of the source. Some results are limits rather than exact numbers.

One series has as its target T1, κ-opioid receptors (Homo sapiens, UniProt P41145).
T1 construct: CEREP (contract screening)
Put plainly: Off target screen (CEREP panel) and dose response. In kind it is binding.

The test system of series [1] is Rat primary microglia. The experiment in a line: Microglial IL-1β release (LPS priming, BzATP). In kind it is cell-based. On the procedure:
Rat primary microglia were primed with 3 EU/mL of ultra-pure Lipopolysaccharide (control standard endotoxin (CSE) Associates of Cape Cod, Falmouth, Mass.). […] Cell free supernatants were assayed for IL-1β using a custom rat cytokine assay (N451A-1; MesoScale Discovery, Rockville, Md.). IC50S were determined using Prism (Graphpad, San Diego, Calif.)
(§1) After 24 hours, media was assayed for nitrite (stable metabolite of NO). […] Primary rat cortical microglia were also treated with LPS (3 EU/ml, 3 hours) to stimulate the production of pro-IL-1β.

The test system of the next series is Oxaliplatin model. Put plainly: Oxaliplatin - Acetone test (reaction time). In kind it is in vivo, rodent. Conditions: Senicapoc 100 mg/kg PO, 240 min after treatment. Here is the method: (§2) Depending on the test, the percentage of activity was calculated from the mean value of the vehicle-treated animals and compared to naïve animals, control paw or cut-off value.

A further series concerns Bennett model. The experiment in a line: Bennett model - Paw pressure test. The series is classed as in vivo, rodent. Conditions: Senicapoc 100 mg/kg PO, 240 min after treatment. Here is the method: as §2
Another series relates to Kaolin model. The experiment in a line: Kaolin - Gait score. The series is classed as in vivo, rodent. As to conditions: Senicapoc 100 mg/kg PO, 240 min after treatment. Here is the method:
as §2

The target of a further series is T2, melatonin 1A receptors (Homo sapiens, UniProt P48039).
T2 construct: CEREP (contract screening)
T2 sequence (P48039 whole entry): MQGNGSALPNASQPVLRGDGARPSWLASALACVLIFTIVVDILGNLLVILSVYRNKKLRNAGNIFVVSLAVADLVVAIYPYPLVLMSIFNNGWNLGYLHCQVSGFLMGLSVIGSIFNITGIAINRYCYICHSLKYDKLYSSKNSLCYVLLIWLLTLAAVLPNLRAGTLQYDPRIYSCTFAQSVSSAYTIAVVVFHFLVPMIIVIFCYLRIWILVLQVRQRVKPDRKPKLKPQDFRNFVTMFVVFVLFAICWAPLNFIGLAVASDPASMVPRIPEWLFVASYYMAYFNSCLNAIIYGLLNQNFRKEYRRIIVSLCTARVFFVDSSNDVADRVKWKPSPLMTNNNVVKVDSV
Put plainly: Off target screen (CEREP panel) and dose response. In kind it is binding.

Another series has as its system rats. The experiment in a line: Rat locomotor activity. The series is classed as in vivo. Conditions: 4 hours after dosing. The source says: Male Sprague-Dawley rats (Charles River) weighing 225-275 g on the test day were divided into groups of 8 animals per treatment. […] Following the pre-treatment time, rats were placed into 50×25×20 cm cages lined with crushed corn cob bedding (Bed-o'Cobs ¼ inch, Andersons Lab Bedding, Maumee, Ohio, USA). The cages were positioned in a Smart Frame Cage Rack (Kinder Scientific, Poway, Calif., USA) outfitted with an infrared beam array (7 X×15 Y). Rats were allowed to move freely within the cage for 1 hour with beam breaks continuously recorded using MotorMonitor™ (Kinder Scientific,). Time course and cumulative data were analyzed with Prism 4 (GraphPad, La Jolla, Calif.). One-way ANOVA with Tukey's Multiple Comparison Post-Hoc Test was used for statistical analysis.

Another series relates to Carrageenan model. Put plainly: Carrageenan - Paw pressure test. Conditions: Senicapoc 100 mg/kg PO, 240 min after treatment. In kind it is in vivo, rodent. Here is the method:
as §2

Another series relates to Brennan model. The experiment in a line: Brennan model - Electronic Von Frey test. The series is classed as in vivo, rodent. Conditions: Senicapoc 100 mg/kg PO, 240 min after treatment. Here is the method: as §2
For series [2], the system named is Rat primary microglia. The experiment in a line: Microglial NO release (measurement of nitrite) after LPS. The series is classed as cell-based. Conditions: 24 hours. Here is the method: Next, 3 EU/ml of ultra-pure Lipopolysaccharide (CSE, Associates of Cape Cod) was added to induce iNOS expression and NO synthesis. After a total incubation time of 24 hours, media was collected, spun down to remove cells and assayed for nitrite (the stable breakdown product of NO) using Griess Reagent (Promega, Madison Wis.).
as §1

Another series concerns CCI rats. Put plainly: Chronic constriction injury (CCI) model, von Frey paw withdrawal threshold. The series is classed as in vivo, rat. Conditions: 4 hours after dosing. On the procedure: Peripheral nerve injury was performed according to the method of Bennett and Xie (Bennett and Xie, 1988), with paw withdrawal thresholds to Von Frey filament stimulation measured as described previously (Chaplan et al., 1994; Tal and Bennett, 1994).
In the first cohort of nerve injured rats, hindpaw mechanical hypersensitivity was evident by day 7 and maintained for the duration of the experiment (see FIG. 4A). […] Experiments were run using a simple cross-over design. Tactile hypersensitivity of rats was evaluated one day prior to drug testing. Drugs were allowed to wash out for one week at which time the mechanical hypersensitivity was reassessed. Rats were then randomly re-assigned to groups prior to the next arm of the study being run. In the final arm, tissue was collected from 3 animals from each group immediately after behavioral assessment of allodynia. Dosing of drugs, assessment of mechanical thresholds and collection of tissues were performed by individual experimenters all blinded to treatments.
All CCI data are presented as mean+/−S.E.M. and were analyzed using ANOVA followed by Fisher's PLSD post-hoc analysis (StatView, Cary, N.C.) when appropriate.

In a further series the test system is Acetic acid test. The experiment in a line: Acetic acid test - Abdominal cramps. In kind it is in vivo, rodent. Conditions: Senicapoc 100 mg/kg PO, 240 min after treatment. On the procedure: as §2
The conditions of series [3]: rats, post dose; cited from earlier work.
For the next series, the system named is TNBS model. Put plainly: TNBS - Colorectal distension. In kind it is in vivo, rodent. As to conditions: Senicapoc 100 mg/kg PO, 240 min after treatment. Here is the method: as §2
Another series addresses T3, μ-opioid receptors (Homo sapiens, UniProt P35372).
T3 construct: CEREP (contract screening)
The experiment in a line: Off target screen (CEREP panel) and dose response. The series is classed as binding.

The subject of the next series is Healthy rats. The experiment in a line: Healthy rats - Paw pressure test. In kind it is in vivo. As to conditions: Senicapoc 100 mg/kg PO, 240 min after treatment. On the procedure: as §2
[4] abbreviates: full dose response curve, functional testing.

T1 sequence (P41145 whole entry): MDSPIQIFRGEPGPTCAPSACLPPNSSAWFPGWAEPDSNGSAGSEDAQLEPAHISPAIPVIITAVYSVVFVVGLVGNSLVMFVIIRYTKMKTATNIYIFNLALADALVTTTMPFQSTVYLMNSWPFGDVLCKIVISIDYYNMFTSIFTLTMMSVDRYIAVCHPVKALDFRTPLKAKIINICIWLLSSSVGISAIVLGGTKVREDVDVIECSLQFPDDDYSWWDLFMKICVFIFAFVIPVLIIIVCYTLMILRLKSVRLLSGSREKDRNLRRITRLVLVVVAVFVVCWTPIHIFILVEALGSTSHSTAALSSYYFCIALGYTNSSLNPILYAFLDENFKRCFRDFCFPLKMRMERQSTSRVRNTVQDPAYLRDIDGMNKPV
T3 sequence (P35372 whole entry): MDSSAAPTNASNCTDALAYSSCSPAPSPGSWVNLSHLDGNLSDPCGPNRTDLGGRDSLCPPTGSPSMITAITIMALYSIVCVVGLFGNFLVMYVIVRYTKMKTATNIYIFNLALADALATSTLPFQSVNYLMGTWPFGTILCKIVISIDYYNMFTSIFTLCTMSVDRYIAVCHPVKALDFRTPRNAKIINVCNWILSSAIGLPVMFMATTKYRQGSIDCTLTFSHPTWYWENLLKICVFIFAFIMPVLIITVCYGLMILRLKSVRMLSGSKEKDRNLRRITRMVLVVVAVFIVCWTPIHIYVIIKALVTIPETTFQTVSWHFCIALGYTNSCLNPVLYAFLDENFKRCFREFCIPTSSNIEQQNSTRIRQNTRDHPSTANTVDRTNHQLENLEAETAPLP

Turning to `NC(=O)C(c1ccccc1)(c1ccc(F)cc1)c1ccc(F)cc1` [Senicapoc], the inhibition at 10 µM against κ-opioid receptors (10 μM), at melatonin 1A receptors (10 μM) and against μ-opioid receptors (10 μM) was greater than 50% each time. Also, the IC50 – broadly, the concentration at which inhibition is half-maximal – against κ-opioid receptors (setting [4]) amounted to 19000 nM; in the series on Rat primary microglia [1] (FIG. 2B legend, LPS 3EU/ml 24 hours, n=3, read-out: IC50, inhibition of IL-1β release from primary microglia (FIG. 2B legend)), 1.3 nM; in the series with Rat primary microglia [1] (LPS 3 EU/ml priming, BzATP 1 mM, read-out: IC50, inhibition of IL-1β release from primary microglia), 15 nM; against melatonin 1A receptors (setting [4]) it was 1700 nM; in the series on Rat primary microglia [2] (LPS 3 EU/ml, nitrite, read-out: IC50, inhibition of NO release from LPS-treated microglia (average)), 39 nM; on μ-opioid receptors (setting [4]), 12000 nM. The “% of activity vs. vehicle” value is 68% in the series with Oxaliplatin model; 69% in the series with Bennett model; 29% in the series with Kaolin model; 116% with Carrageenan model; −7% with Brennan model; −32% with Acetic acid test. Also, the “% of activity vs. vehicle” value in the series on TNBS model is listed as 50%; in the series on Healthy rats it was −12%. The “Effect on locomotor activity (total distance traveled)” value in the series on rats (30 mg/kg p.o.) and with rats (100 mg/kg p.o.) was “no effect; also recorded: did not significantly affect” in each case. Also, the EC50 (commonly the concentration giving half of the maximal effect) in the series on Rat primary microglia [2] (FIG. 2A legend, LPS 3EU/ml, n=3, read-out: EC50, inhibition of NO production (nitrite), representative experiment) amounted to 0.9 nM. For the same molecule, in the series with CCI rats (100 mg/kg p.o.), the “Reversal of mechanical hypersensitivity (tactile allodynia)” value amounted to 48%. Moreover, the “Effect on injury-induced nociceptive behaviors at the low doses” value in the series on CCI rats (low doses (10, 30 mg/kg p.o.)) is reported as “lack of significant effect”. Moreover, the “Tmax (time of maximum plasma concentration)” value in series [3] was 4 h.
